Test results from ChEMBL document CHEMBL4706515, “Discovery of new [1,2,4] Triazolo[1,5-a]Pyrimidine derivatives that Kill gastric cancer cells via the mitochondria pathway” (Eur J Med Chem, 2020).
The source made the active and inactive calls. The rule behind the calls is not given here.

Columns and labels:
MGC-803 [1] = assay: Antiproliferative activity against human MGC-803 cells assessed as inhibition of cell growth at 10 uM measured after 72 hrs by SRB assay relative to control; format: functional
SGC-7901 = assay: Antiproliferative activity against human SGC-7901 cells assessed as inhibition of cell growth at measured after 72 hrs by SRB assay; format: functional
GES1 = assay: Cytotoxicity against human GES1 cells assessed as inhibition of cell growth at measured after 72 hrs by SRB assay; format: cell-based; conditions: ges1, 72 h
EJ = assay: Antiproliferative activity against human EJ cells assessed as inhibition of cell growth at measured after 72 hrs by SRB assay; format: functional
A549 = assay: Antiproliferative activity against human A549 cells assessed as inhibition of cell growth at measured after 72 hrs by SRB assay; format: functional
HGC-27 = assay: Antiproliferative activity against human HGC-27 cells assessed as inhibition of cell growth at measured after 72 hrs by SRB assay; format: functional
BGC-823 = assay: Antiproliferative activity against human BGC-823 cells assessed as inhibition of cell growth at measured after 72 hrs by SRB assay; format: functional
MKN-45 = assay: Antiproliferative activity against human MKN-45 cells assessed as inhibition of cell growth at measured after 72 hrs by SRB assay; format: functional
MGC-803 [2] = assay: Antiproliferative activity against human MGC-803 cells assessed as inhibition of cell growth at measured after 72 hrs by SRB assay; format: functional

Row | Structure (SMILES) | inhibition at 10 µM (MGC-803 [1]) [%] | also measured
1 | C#CCSc1nc2nc(-c3ccccc3)cc(Nc3ccc(C(=O)/C=C/c4cccc(Br)n4)cc3)n2n1 | 56.3 | –
2 | Cc1cc(Nc2ccc(C(=O)/C=C/c3ccc(Br)cn3)cc2)n2nc(SCc3nc4ccccc4[nH]3)nc2n1 | 96.8 | GI50 (SGC-7901): 640 nM; Activity (GES1): Non-Toxic; GI50 (EJ): inactive; GI50 (A549): inactive; GI50 (HGC-27): 640 nM; GI50 (BGC-823): 640 nM; GI50 (MKN-45): 640 nM; GI50 (MGC-803 [2]): 640 nM
3 | Cc1cc(Nc2ccc(C(=O)/C=C/c3cccc(Br)n3)cc2)n2nc(SCc3ccccc3[N+](=O)[O-])nc2n1 | 92.3 | –
4 | Cc1cc(Nc2ccccc2)n2nc(SCc3nc4ccccc4[nH]3)nc2n1 | 22.4 | –
5 | Cc1cc(Nc2ccc(C(=O)/C=C/c3cccc(Br)n3)cc2)n2nc(SCc3ccc(Cl)cc3)nc2n1 | 90.2 | –
6 | Cc1cc(Nc2ccc(C(=O)/C=C/c3cccc(Br)n3)cc2)n2nc(SCc3ccc(F)cc3)nc2n1 | 93.3 | –
7 | O=c1[nH]cc(F)c(=O)[nH]1 [FLUOROURACIL] | – | GI50 (SGC-7901): Active; Activity (GES1): Toxic; GI50 (EJ): Active; GI50 (A549): Active; GI50 (HGC-27): Active; GI50 (BGC-823): Active; GI50 (MKN-45): Active; GI50 (MGC-803 [2]): Active
8 | Cc1cc(Nc2ccc(C(=O)/C=C/c3cccc(Br)n3)cc2)n2nc(SCc3ccccc3)nc2n1 | 90.2 | –
9 | Cc1cc(Nc2ccc(C(=O)/C=C/c3cccc(Br)n3)cc2)n2nc(SCc3ccc(C(F)(F)F)cc3)nc2n1 | 96.6 | –
10 | Cc1cc(Nc2ccc(C(=O)/C=C/c3cccc(Br)n3)cc2)n2nc(SCc3ccc(Br)cc3)nc2n1 | 96.3 | –
11 | Cc1cc(Nc2ccc(C(=O)/C=C/c3cccc(Br)n3)cc2)n2ncnc2n1 | 58.4 | –
12 | CCc1cc(Nc2ccc(C(=O)/C=C/c3cccc(Br)n3)cc2)n2nc(SCc3ccccc3)nc2n1 | 63 | –
13 | Cc1cc(Nc2ccc(C(=O)/C=C/c3cccc(Br)n3)cc2)n2nc(SCCCc3ccccc3)nc2n1 | 76.7 | –
14 | Cc1cc(Nc2cc(-c3ccccc3)[nH]n2)n2nc(SCc3nc4ccccc4[nH]3)nc2n1 | 78.4 | –
15 | C#CCSc1nc2nc(C)cc(Nc3ccc(C(=O)/C=C/c4cccc(Br)n4)cc3)n2n1 | 94.4 | –
16 | Cc1cc(Nc2ccc(C(=O)/C=C/c3ccccc3)cc2)n2nc(SCc3nc4ccccc4[nH]3)nc2n1 | 94.5 | –
17 | Cc1cc(Nc2ccc(C(=O)/C=C/c3cccc(Br)n3)cc2)n2nc(SCc3ccc([N+](=O)[O-])cc3)nc2n1 | 91.6 | –
18 | Cc1nc2nc(SCc3ccc(Cl)cc3)nn2c(Nc2ccc(C(=O)/C=C/c3cccc(Br)n3)cc2)c1C | 72.5 | –
19 | Cc1cc(Nc2ccc(N3CCN(C)CC3)cc2)n2nc(SCc3nc4ccccc4[nH]3)nc2n1 | 78.1 | –
20 | O=C(/C=C/c1cccc(Br)n1)c1ccc(Nc2cc(-c3ccccc3)nc3nc(SCc4ccccc4)nn23)cc1 | 38.3 | –
21 | O=C(/C=C/c1cccc(Br)n1)c1ccc(Nc2c3c(nc4ncnn24)CCC3)cc1 | 49.9 | –
